Test results reported in patent US20240392055A1, “UV/HEVL-FILTERING SILICONE HYDROGEL CONTACT LENSES” (Alcon Inc., priority 2023, published 2024).
Values after ≈ are worked out from the molar mass of the structure shown.

Assays:
[1] = Absorption edge of visible light photoinitiators; assay type: physicochemical
Text: Table 5 provides information about the photoinitiators used in this example.

[2] = Solubility of photoinitiator in lens formulation; assay type: physicochemical
Protocol: Four lens formulations without HEVL-absorbing benzotriazole-containing vinylic monomers are prepared to have the following compositions shown in Table 6. TTMB-Sn is not soluble in the formulation at room temperature but is soluble at 40° C. So, the photo-rheology experiment is conducted at 40° C. for this photoinitiator instead of the typical 25° C. (for other three photoinitiators).

[3] = UV/visible absorption of dilute monomer solutions (absorption peak); assay type: physicochemical; settings: HEVL absorption peak; dilute solution in PrOH
[4] = empirical substituent parameter of R group on benzotriazole ring; cited from earlier work
[5] = Solubility of HEVL-absorbing vinylic monomers in 1-propanol; assay type: physicochemical
Text: It is also reported that there are correlations between lower melting points and compound solubility (Bathori, N. B. Acta Cryst., 2014, A70, C990). Changing the R group from —Cl to —CF3 should both shift the absorbance due to a greater electron withdrawing capability, and increase the solubility by reducing the ability of the compound to crystalize due to the bulky —CF3 group. […] UV23 would seem to be a good candidate because the —CF3 group further red shifts the absorbance and the solubility is much improved.

Row | SMILES | Abs. edge (nm) [1] [nm] | Absorption Peak (nm) [3] [nm] | σpara [4] | Solubility in PrOH [5] [µg/mL] | also measured
1 | C[CH2][Ge]([CH2]C)([C](=O)c1ccc(OC)cc1)[C](=O)c1ccc(OC)cc1 [BMBDE-Ge, Bis(4-methoxybenzoyl)diethylgermanium] | 470 | – | – | – | –
2 | C[CH2][Ge]([CH2]C)([C](=O)c1ccccc1)[C](=O)c1ccccc1 [DBDE-Ge, dibenzoyldiethylgermanium] | 480 | – | – | – | –
3 | CCc1ccccc1[C](=O)[Ge]([C](=O)c1ccccc1CC)([C](=O)c1ccccc1CC)[C](=O)c1ccccc1CC [TEB-Ge, tetrakis(2-ethylbenzoyl)-germanium] | 490 | – | – | – | –
4 | Cc1cc(C)c([C](=O)[Sn]([C](=O)c2c(C)cc(C)cc2C)([C](=O)c2c(C)cc(C)cc2C)[C](=O)c2c(C)cc(C)cc2C)c(C)c1 [TTMB-Sn, tetrakis(2,4,6-trimethylbenzoyl)stannane] | 510 | – | – | – | solubility in the formulation ([2]; 40° C.): soluble; solubility in the formulation ([2]; room temperature): not soluble
5 | C=CC(=O)OCCCOc1cc(-n2nc3ccc(C(F)(F)F)cc3n2)c(O)c(C(C)(C)C)c1 [UV23, 2-[2′-Hydroxy-3′-tert-butyl-5′-(3′-acryloyloxypropoxy)phenyl]-5-trifluoromethyl-2H-benzotriazole] | – | 418 | 0.54 | > 3300 | –
6 | C=C(C)C(=O)OCCCOc1cc(-n2nc3ccc(Cl)cc3n2)c(O)c(C(C)(C)C)c1 [UV28, 2-{2′-Hydroxy-3′-tert-butyl-5′-[3′-methacryloyloxypropoxy]phenyl}-5-chloro-2H-benzotriazole] | – | 416 | 0.23 | 1500 (≈ 3.38 mM) | –
